How the values were obtained:
[1] = test system: TNK1 and STAT5 phosphorylation in L540 tumor tissue; assay: In vivo single dose PD study, L540 xenograft, Western blot; set-up: species or system mouse; details: L540 tumor samples, 50 mg/kg
Description: The objective of this study was to assess in vivo pharmacodynamic activity of Example No. 13 in a subcutaneous xenograft model of Hodgkin's lymphoma in female NOD SCID mice, aged 6-8 weeks. There were 4 groups (and a total of 84 mice): Example No. 13 at 50 mg/kg, 25 mg/kg, or 10 mg/kg (n=27 mice for each dose), and vehicle (n=3 mice). When the average tumor volume reached 300 mm^3, animals were randomized and dosed once p.o. at a 10 mL/kg dose volume. Blood and tumors were collected at nine different time points.
Example No. 13 was formulated in Tween 80 (0.2 mL), ethanol (1 mL), PEG400 (3 mL), and water (5.8 mL).
In this study, protein expression was analyzed by Western blotting method. Tissue samples were acquired as part of a single dose PK/PD study. Equal amounts of tumor were placed into a bead tube, lysis buffer (RIPA buffer (Sigma No. 0278), Halt CocktaiL (ThermoFisher No. 78440), EDTA (ThermoFisher No. 1861274), PhosSTOP (Sigma No. 04906845001), cOmplete (Sigma No. 11697498001) and Inhibitor Cocktail 3 (Sigma No. P0044-1ML)) was added, and samples were homogenized using bead homogenizer (2×20 s at 4.5 m/s (Fisherbrand Bead Mill 24 Homogenizer, Fisher Scientific)). […]
Protein concentration was determined using BCA kit (Invitrogen No. 23225). Equal amounts of protein were pooled from each treatment group, and concentration was measured again in the pooled samples. […]

K562 cells = assay: In-vitro cell viability assay (CellTiter-Glo), K562; assay type: cell-based; details: Homo sapiens
Description: Tnk1 is known to drive proliferation and survival of Hodgkin's lymphoma (HL) cells, such as K652 and L540 cell lines (Gu et al., Identification of activated Tnk1 kinase in Hodgkin's lymphoma, Leukemia 24: 861-65 ((2010)). Downregulation of Tnk1 inhibits cell growth and proliferation, and increases apoptosis. To study the individual test compounds in the context of HL cells, CellTiter-Glo® assays (Promega, Madison, Wis.) were performed according to the manufacturer's instructions. The CellTiter-Glo® assay system uses a thermostable luciferase to generate a stable “glow-type” luminescent signal while simultaneously inhibiting endogenous enzymes released during cell lysis (e.g., ATPases). As such, the assay provides a sensitive and stable luminescent output.
Reagent Preparation • 1. The CellTiter-Glo® Buffer was thawed and equilibrated to room temperature prior to use. • 2. The lyophilized CellTiter-Glo® Substrate was equilibrated to room temperature prior to use. • 3. An appropriate volume of CellTiter-Glo® Buffer was transferred into the amber bottle containing CellTiter-Glo® Substrate according the manufacturer's recommendation. The reconstituted lyophilized enzyme/substrate mixture formed the CellTiter-Glo® Reagent. • 4. The CellTiter-Glo® Reagent was mixed by gently vortexing, swirling or inverting the contents to obtain a homogeneous solution.
Protocol for the Cell Viability Assay • 1. A titration of the K652 or L540 cells was performed to determine the optimal number and ensure that the CellTiter-Glo® Assay was performed within the linear range. • 2. Opaque-walled multiwell plates (compatible with the luminometer) were prepared with K652 or L540 cells in culture medium, 100 μl per well for 96-well plates or 25 μl per well for 384-well plates. • 3. Control wells containing medium without cells were prepared to obtain a value for background luminescence. • 4. Test compound was added to experimental wells, and incubated according to culture protocol. • 5. The plate and its contents were equilibrated at room temperature for approximately 30 minutes.
Protocol for Generating an ATP Standard Curve • 1. 1 μM ATP was prepared in culture medium (100 μl of 1 μM ATP solution contains 10^−10 moles ATP). • 2. Serial tenfold dilutions of ATP in culture medium (1 μM to 10 nM; 100 μl contains 10^−10 to 10^−12 moles of ATP) were performed. • 3. A multiwell plate with varying concentrations of ATP standard in 100 μl medium (25 μl for a 384-well plate) was prepared. • 4. A volume of CellTiter-Glo® Reagent equal to the volume of ATP standard present in each well was added. • 5. Contents were mixed for 2 minutes on an orbital shaker. • 6. The plate was allowed to incubate at room temperature for 10 minutes to stabilize the luminescent signal. • 7. Luminescence was recorded.

[2] = test system: pSTAT5 in L540 xenograft tumors; assay: pSTAT5 assay in L540 xenograft tumors (ELISA); assay type: in vivo, mouse; details: 10 mg/kg and 25 mg/kg treated arms
Description: Effects of test compounds on phosphorylation of signal transducer and activator of transcription 5 (STAT5) were determined in L540 xenograft tumors.
Methods: Each treatment group included 10 NOD SCID mice. Each mouse was injected with 1×10^7 L540 cells (86% viable at the time of injection), and treated with a single dose of test compound (10 mg/kg or 25 mg/kg) 10 days post L540 cell injection. Tumors were collected 24 hours post treatment, snap frozen, and kept at −80° C. for 24 hours post-harvest. Phosphorylated STAT5 (pSTAT5) levels were measured in the lysates using the STAT5 AB pY694/699 ELISA Kit (Abcam, Cambridge, UK, ab176656). The standard Abcam ELISA protocol was followed, except for 10× more protein than what Abcam recommends was used.

IC50 (K562 cells) | SMILES | earliest time at which inhibition of STAT5 phosphorylation was observed after dosing [1] | dose dependence of p-STAT5 decrease [2]
≥ 6 µM | CN1CCN(c2c(Cl)cc(Nc3ncc(Cl)c(Nc4cccnc4N4CCCC4=O)n3)c3ccccc23)CC1 [Example No. 18, 1-(3-((5-chloro-2-((3-chloro-4-(4-methylpiperazin-1-yl)naphthalen-1-yl)amino)pyrimidin-4-yl)amino)pyridin-2-yl)pyrrolidin-2-one] |  | 
≥ 6 µM | COc1cc(N2CCN(C)CC2)c(Cl)cc1Nc1ncc(Cl)c(Nc2cccnc2N2CCNC2=O)n1 [Example No. 21, 1-(3-((5-chloro-2-((5-chloro-2-methoxy-4-(4-methylpiperazin-1-yl)phenyl)amino)pyrimidin-4-yl)amino)pyridin-2-yl)imidazolidin-2-one] |  | 
< 0.5 µM | CN1CCN(c2ccc(Nc3ncc(Cl)c(Nc4cccnc4N4CCCC4=O)n3)cc2)CC1 [compound 1, 1-(3-((5-chloro-2-((4-(4-methylpiperazin-1-yl)phenyl)amino)pyrimidin-4-yl)amino)pyridin-2-yl)pyrrolidin-2-one] |  | 
1.5 to 6 µM | COc1cc(N2CCN(C)CC2)ccc1Nc1ncc(Cl)c(Nc2cccnc2N2CCCC2=O)n1 [compound 2, 1-(3-((5-chloro-2-((2-methoxy-4-(4-methylpiperazin-1-yl)phenyl)amino)pyrimidin-4-yl)amino)pyridin-2-yl)pyrrolidin-2-one] |  | 
1.5 to 6 µM | CC(C)Oc1cc(N2CCN(C)CC2)ccc1Nc1ncc(Cl)c(Nc2cccnc2N(C)C)n1 [compound 4, 5-chloro-N^4-(2-(dimethylamino)pyridin-3-yl)-N^2-(2-isopropoxy-4-(4-methylpiperazin-1-yl)phenyl)pyrimidine-2,4-diamine] |  | 
1.5 to 6 µM | CN1CCN(c2ccc(Nc3ncc(Cl)c(Nc4cccnc4N(C)C)n3)cc2)CC1 [compound 5, 5-chloro-N^4-(2-(dimethylamino)pyridin-3-yl)-N^2-(4-(4-methylpiperazin-1-yl)phenyl)pyrimidine-2,4-diamine] |  | 
≥ 6 µM | COc1cc(N2CCN(C)CC2)c(C)cc1Nc1ncc(Cl)c(Nc2cccnc2N2CCNC2=O)n1 [compound 9, 1-(3-((5-chloro-2-((2-methoxy-5-methyl-4-(4-methylpiperazin-1-yl)phenyl)amino)pyrimidin-4-yl)amino)pyridin-2-yl)imidazolidin-2-one] |  | showed some dose dependence
≥ 6 µM | COc1cc(N2CCN(C)CC2)c(C)cc1Nc1ncc(Br)c(Nc2cccnc2N(C)C)n1 [compound 10, 5-bromo-N^4-(2-(dimethylamino)pyridin-3-yl)-N^2-(2-methoxy-5-methyl-4-(4-methylpiperazin-1-yl)phenyl)pyrimidine-2,4-diamine] |  | showed some dose dependence

SMILES | IC50 (K562 cells) | earliest time at which inhibition of STAT5 phosphorylation was observed after dosing [1] | dose dependence of p-STAT5 decrease [2]
COc1cc(N2CCN(C)CC2)c(Cl)cc1Nc1ncc(Cl)c(Nc2cccnc2N2CCCC2=O)n1 [Example No. 13, 1-(3-((5-chloro-2-((5-chloro-2-methoxy-4-(4-methylpiperazin-1-yl)phenyl)amino)pyrimidin-4-yl)amino)pyridin-2-yl)pyrrolidin-2-one] | 1.5 to 6 µM | 15 to 30 min | 
